Measurements from patent EP1180991B1, “GAMBOGIC ACID DERIVATIVES AS ACTIVATORS OF CASPASES AND INDUCERS OF APOPTOSIS” (Cytovia, Inc., priority 1999, dated 2000).

Experiments:
PC3 cells = assay: PARP cleavage, western blot (Example 98); type: cell-based, human
Method: (§1) Cleavage of the enzyme poly(ADP)ribose polymerase (PARP) by caspase-3 and related proteases is considered to be one of the molecular hallmarks of caspase-mediated apoptosis. Therefore, the ability of gambogic acid to induce PARP cleavage in four different human tumor cell lines (Jurkat cells, HL-60 cells, T47D cells and PC3 cells) was determined.
(§2) […] Control cultures were treated with a drug vehicle (DMSO), or the well-characterized apoptosis inducer, staurosporine. At the end of the apoptosis induction period, the cells were harvested, washed once with PBS, quick-frozen on dry ice, and stored at -80° C. The cells were then lysed in a standard immunoblotting lysis buffer and samples of the lysates were electrophoresed on 4% to 20% gradient polyacrylamide gels. The proteins in the gels were then transferred to PVDF membranes and probed with a commercially-available rabbit polyclonal antibody to PARP.

T47D cells [1] = assay: PARP cleavage, western blot (Example 98); type: cell-based, human
Method: as §1, §2

[2] = Inhibition of cell proliferation (GI50) and cell death (LC50), CellTiter 96 (Example 91); type: cell-based, human; details: human, mrc-5 cells; MRC-5 non-transformed fibroblasts; 48 h; dose for 50% cell death
Method: (§3) T-47D, ZR-75-1, PC-3, human prostate cancer cell line DU-145, human non-small cell lung cancer cell line A-549, human small cell lung cancer cell line SHP-77, HL-60 and MRC-5 cells were grown and harvested as in Example 90. […] The samples were mixed by agitation and incubated at 37° C for 2-4 h in a 5% CO2-95% humidity incubator. […] This determines the possible background absorbance of the test compounds. No absorbance for gambogic acid or its analogs or derivatives was found at 490 nm. After the 2-4 h incubation, the samples were read for absorbance as above (ATest).
(§4) The samples were mixed by agitation and incubated at 37° C for 2-4 h in a 5% CO2-95% humidity incubator. Absorbance was read as above, (AT=0) defining absorbance for initial cell number used as baseline in GI50 determinations and (Amin) defining absorbance for media alone used as baseline in LC50 determinations.
(§5) GI50 (dose for50%inhibition of cell proliferation) 50 = 100 x [(ATest-AT = 0)/(Amax-AT = 0)] [formula] LC50 (dose for50%cell death) 50 = 100 x [(ATest-Amin)/(AT = 0-Amin)] [formula]

MRC-5 = assay: as above; type: cell-based, human; details: Homo sapiens, MRC5; MRC-5 non-transformed fibroblasts; 48 h; dose for 50% inhibition of cell proliferation; read-out: GI50
Method: as §3, §4, §5

HEL cells = details: Asano et al. 1996; cited from earlier work
Jurkat T leukemia cells = assay: Apoptotic morphology, phase-contrast microscope (Example 95); type: cell-based, human; details: 10 µM
Method: Jurkat T leukemia cells were grown in RPMI 1640 media (Life Technologies, Inc.) + 10% FCS (Sigma Chemical Company) in a 5% CO2-95% humidity incubator at 37° C, and maintained at a cell density between 4 and 8 x 10^5 cells/ml. Cells were harvested at 200xg and resuspended at 1-2 x 10^6 cells/ml into RPMI 1640 media + 10% FCS, and 3 ml of the cells was dispensed in each of three wells of a 6-well plate. One of the wells was treated with 10 µM caspase inhibitor cbz-Val-Asp-fink (Cytovia, Inc.; WO99/18781) and the plate was incubated at 37° C in a 5% CO2-95% humidity incubator for 1 h prior to addition of gambogic acid. The wells with and without the caspase inhibitor were treated with 10 µM gambogic acid. The third well was treated with solvent (control cells). The plate was incubated at 37° C in a 5% CO2-95% humidity incubator.
At 30 min. after addition of gambogic acid an aliquot of cells from each well was taken into the capillary slides and observed under a phase-contrast microscope.

A-549 = assay: Caspase activity with and without caspase inhibitor (Example 97); type: cell-based, human; parameters: key to Inhibition of caspase activity by Inhibitor: The caspase activity detected was inhibited by the caspase inhibitor (+)
Method: (§6) T47D, ZR-75, PC3, SHP-77 and A-549 cells were maintained and harvested as described in Example 90. Cells were added to 96-well plates as described in Example 90. The cells were treated with 10 µM gambogic acid, in the presence and in the absence of 10 µM caspase inhibitor cbz-Val-Asp-fink (Cytovia, Inc.; WO99/18781). The plate was incubated up to 24 h at 37° C in a 5% CO2-95% humidity incubator. Caspase activity was determined by addition of a fluorogenic substrate as described in Example 90.
(§7) Gambogic acid induced caspase activity in a ratio of greater than 2.5 (+) above untreated cell levels in all the tested cancer cell lines (Table IV). The caspase activity detected was inhibited by the caspase inhibitor (+), confirming that the fluorescent signal was due to caspase activity. Table IV. Gambogic Acid as Caspase Inducers in Solid Tumor Cells

PC-3 = assay: as above; type: cell-based, human; parameters: key to Inhibition of caspase activity by Inhibitor: The caspase activity detected was inhibited by the caspase inhibitor (+)
Method: as §6, §7

SHP-77 = assay: as above; type: cell-based, human; parameters: key to Inhibition of caspase activity by Inhibitor: The caspase activity detected was inhibited by the caspase inhibitor (+)
Method: as §6, §7

T47D = assay: as above; type: cell-based, human; parameters: key to Inhibition of caspase activity by Inhibitor: The caspase activity detected was inhibited by the caspase inhibitor (+)
Method: as §6, §7

ZR-75 = assay: as above; type: cell-based, human; parameters: key to Inhibition of caspase activity by Inhibitor: The caspase activity detected was inhibited by the caspase inhibitor (+)
Method: as §6, §7

HeLa = details: Asano et al. 1996; cited from earlier work
T47D cells [3] = assay: Dose response of caspase activation, cancer cells versus normal fibroblasts (Example 96); type: cell-based, human; details: T47D versus MRC-5; 2 h dose response (Fig. 4)
Method: T47D cells and MRC-5 cells were maintained and harvested as described in Example 90. […] To determine the dose response of gambogic acid for inducing caspase activity, 5 µl of 20 µM gambogic acid in RPMI media was added to wells in triplicates. Two-fold serial dilutions were made for the lower concentrations. After incubation for 2 h, the samples were removed from the 5% CO2-95% humidity incubator and caspase activity was determined by addition of a fluorogenic substrate as described in Example 90.

[4] = 10 µM plus 10 µM caspase inhibitor cbz-Val-Asp-fink
[5] = Homo sapiens, 10 µM, up to 24 h

CC(C)=CCC[C@]1(C)C=Cc2c(O)c3c(c(CC=C(C)C)c2O1)O[C@]12C(=C[C@@H]4C[C@H]1C(C)(C)O[C@@]2(C/C=C(/C)C(=O)O)C4=O)C3=O [Example 1, Gambogic Acid]
PARP cleavage (PC3 cells; 2.5 µM and 5 µM, 2 h (Fig. 5D)): neither concentration (2.5 µM and 5 µM) of drug was effective | PARP cleavage (PC3 cells; 5 µM, 4 h (Fig. 5D)): a moderate amount of PARP cleavage product | PARP cleavage (T47D cells [1]; 2.5 µM and 5 µM, 4 h (Fig. 5C)): almost complete PARP cleavage | PARP cleavage (T47D cells [1]; 2.5 µM, 2 h (Fig. 5C)): moderate induction of PARP cleavage | PARP cleavage (T47D cells [1]; 5 µM, 2 h (Fig. 5C)): almost complete PARP cleavage | CC50 at 48 h [2]: 500 nM | GI50 (MRC-5): 400 nM | cytotoxicity (HEL cells): cytotoxic | apoptotic morphology (Jurkat T leukemia cells; 30 min (Fig. 3B)): blebbing and cellular fragmentation | apoptotic morphology in the presence of caspase inhibitor (Jurkat T leukemia cells; 30 min, with 10 µM caspase inhibitor cbz-Val-Asp-fink (Fig. 3C)): prevented the morphological changes | Inhibition of caspase activity by Inhibitor (A-549; [4]): + | fold induction at 10 µM (A-549; Homo sapiens, A549, 10 µM, up to 24 h): > 2.5 | Inhibition of caspase activity by Inhibitor (PC-3; [4]): + | fold induction at 10 µM (PC-3; [5]): > 2.5 | Inhibition of caspase activity by Inhibitor (SHP-77; [4]): + | fold induction at 10 µM (SHP-77; Homo sapiens, SHP77, 10 µM, up to 24 h): > 2.5 | Inhibition of caspase activity by Inhibitor (T47D; [4]): + | fold induction at 10 µM (T47D; [5]): > 2.5 | Inhibition of caspase activity by Inhibitor (ZR-75; [4]): + | fold induction at 10 µM (ZR-75; Homo sapiens, ZR75, 10 µM, up to 24 h): > 2.5 | cytotoxicity (HeLa): cytotoxic | sensitivity to induction of caspase activity (T47D cells [3]): more sensitive to induction of caspase activity than a normal fibroblast cell line MRC-5
